Experimental data as given in patent US20190030053A1, “COMPOSITION FOR INCREASING EXPRESSION OF PGC-1alpha” (BENEBIOSIS CO., LTD., priority 2016, published 2019).

What was measured:
PGC-1α and related genes = assay: Gene expression by body parts in skin test models; format: in vivo, mouse; conditions: HRM2 mice, oral 0.1 mg/kg/day, 10 weeks; organs and muscles
Excerpt: In order to investigate the gene expression chages by body parts by the treatment with the SL (3′-SL & 6′-SL) compositions in skin test models, 6-week-old male skin test model (HRM2) mice (hairless appearance containing melanin) were randomly grouped into three different dietary treatment groups (8 animals per group, a total of 24 animals) below, and the diets (AIN-76A, Dyets, USA) were maintained for 10 weeks. […]
The gene expression changes by administration of the SL (3′-SL & 6′-SL) compositions were quantitatively compared for eight main organs (heart, hippocampus, brain, spinal cord, lung, liver, spleen, and kidney), three skeletal muscles (soleus muscle, quadriceps femoris muscle, and gastrocnemius muscle), and the like. RNA was extracted by TRIzol agent (Invitrogen). cDNA was synthesized by using RNA, which has been extracted as above and quantified, and a reverse transcription system (Promega, USA). The expression patterns of PGC-1α and related genes were measured by using pre-designed primers and probes (Applied Biosystems; PGC-1α, Mm00447181_m1, GAPDH, and Mm99999915_q1) for the synthesized cDNA and analysis targets (Fndc5, PGC-1α, Erra, UCP1, SOD2, and GPX1). […]

PGC-1α protein = PGC-1α protein expression in brain and hippocampus of old mouse models (western blot); format: in vivo; conditions: ICR mice, oral 0.1 mg/kg/day, 42 weeks
Procedure: In order to investigate the relative protein expression in the brain compared with before SL (3′-SL & 6′-SL) aministration, 4-week-old ICR mice were purchased from Central Lab Animal (Korea). Water was freely accessible, and a commercially available pellet feed (Dooyeul Biotech, Korea) was given for two weeks. […]
Sialyllactose or DW was orally administered daily. […] The dietary intake and body weight change were measured every 5 days. […]
In FIG. 2b, BB1 6′ represents 6′-SL. The “PGC-1α protein expression level” and “GAPDH protein expression level” in each site were quantified, and the relative ratio of the values, (PGC-1α protein expression level)/(GAPDH protein expression level) was numerically expressed for the control group, 3′-SL administration group, and 6′-SL administration group. […]

high-fat diet mice = assay: Subcutaneous fat changes of high-fat diet mice by subcutaneous injection; format: in vivo, mouse; conditions: 0.5 ml of 100 mM, subcutaneous injection day 0 and day 4; observed day 4 and 7
Procedure: 4-Week-old C56BL/6 mice were purchased from Dooyeul Biotech (Korea). Water was freely accessible, and a commercially available pellet feed (Dooyeul Biotech, Korea) was given for one week. A high-fact (60% fat) diet purchased from Research Diets (New Brunswick, U.S.A) was supplied for 28 days to construct fat-accumulated mice.
0.5 ml of 100 mM 3′-siallylactose or 6′-siallylactose dissolved in a phosphate buffer was subcutaneously injected two times (day 0 and day 4) into four to five sites of the dorsal region of the mouse having fat accumulation induced by a high-fat diet. On day 4 and 7, the skin was observed by the naked eye and dermoscopy. A phosphate buffer was used as a control group (CTL).

Structure (SMILES) | expression levels of analysis targets (Fndc5, PGC-1α, Erra, UCP1, SOD2, GPX1) vs negative control (PGC-1α and related genes) | PGC-1α protein expression level (PGC-1α/GAPDH) vs negative control (PGC-1α protein) | subcutaneous fat (naked eye and dermoscopy) (high-fat diet mice)
CC(=O)N[C@H]1[C@H]([C@H](O)[C@H](O)CO)O[C@@](O[C@H]2[C@@H](O)[C@@H](CO)O[C@@H](O[C@H]3[C@H](O)[C@@H](O)C(O)O[C@@H]3CO)[C@@H]2O)(C(=O)O)C[C@@H]1O (stereo partly drawn) [3′-SL, α-NeuNAc-(2→3)-β-D-Gal-(1→4)-D-Glc] | relatively low compared with 6′-SL |  | 
CC(=O)N[C@H]1[C@H]([C@H](O)[C@H](O)CO)O[C@@](OC[C@H]2O[C@@H](O[C@H]3[C@H](O)[C@@H](O)[C@H](O)O[C@@H]3CO)[C@H](O)[C@@H](O)[C@H]2O)(C(=O)O)C[C@@H]1O [6′-SL, α-NeuNAc-(2→6)-β-D-Gal-(1→4)-D-Glc] | very excellent | much higher | greatly reduced subcutaneous fat
